The conditions of series [1]: i.v.; cited from earlier work.
The target of a further series is T1, mu opioid receptor (MOR) (Homo sapiens, UniProt P35372).
T1 construct: NIMH Psychoactive Drug Screening Program (PDSP), University of North Carolina at Chapel Hill (performed the assay)
As to the kind of experiment: Receptor binding, mu opioid receptor (NIMH PDSP). Conditions: for MOR affinity, in words: comparison among analogs; for reduction of MOR affinity by glycosylation: relative to unglycosylated reference. An excerpt: (§1) Receptor Binding Profiles and Ki: The receptor binding an Ki determinations were generously provided by the National Institute of Mental Health's Psychoactive Drug Screening Program (PDSP), Directed by Bryan L. Roth at the University of North Carolina at Chapel Hill and Project Officer Jamie Driscoll at NIMH, Bethesda MD, USA.

In series [2] the test system is male and female CD-1 mice. As to the kind of experiment: Tail flick (TF) antinociception test. The class given is in vivo. Particulars: for rank order of effectiveness, TF AUC: main effects of drug; for rank order of potency (ED50), TF: mg/kg calculations; for TF antinociception AUC: top dose (5.6 mg/kg), mean male and female. On the procedure: Tail Flick (TF): CD1 mice were used for this test. The latency to withdraw the tail from a heat source was automatically measured (IITC, Woodland Hills, CA). […] Percent Maximum Possible Effect (% MPE) was determined as [(latency-baseline latency)/(9-baseline latency)]*100.
Statistics/Data Analysis: Data were analyzed with […] PRISM software (GraphPad Software, San Diego CA).

A further series deals with male and female DBA mice. As to the kind of experiment: Hot plate (HP) antinociception test. Conditions: for rank order of potency (ED50), HP: both mg/kg and μmol/kg values; for HP antinociception, in words: s.c., 5 hr test.
The target in series [3] is T2, delta opioid receptor (DOR) (Homo sapiens, UniProt P41143).
T2 construct: NIMH Psychoactive Drug Screening Program (PDSP), University of North Carolina at Chapel Hill (performed the assay)
T2 sequence (P41143 whole entry): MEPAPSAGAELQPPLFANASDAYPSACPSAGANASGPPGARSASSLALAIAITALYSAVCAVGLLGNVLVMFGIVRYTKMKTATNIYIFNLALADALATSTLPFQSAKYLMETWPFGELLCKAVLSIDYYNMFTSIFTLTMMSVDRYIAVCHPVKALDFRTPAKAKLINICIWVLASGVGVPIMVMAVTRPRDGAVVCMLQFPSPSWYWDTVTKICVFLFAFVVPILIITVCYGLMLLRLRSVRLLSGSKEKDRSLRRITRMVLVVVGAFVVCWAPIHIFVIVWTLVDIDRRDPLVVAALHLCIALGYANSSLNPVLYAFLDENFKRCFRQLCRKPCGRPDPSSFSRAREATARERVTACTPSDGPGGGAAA
Briefly: Receptor binding, delta opioid receptor (NIMH PDSP).
Source text: as §1

For series [4], the target named is T3, kappa opioid receptor (KOR) (Homo sapiens, UniProt P41145).
T3 construct: NIMH Psychoactive Drug Screening Program (PDSP), University of North Carolina at Chapel Hill (performed the assay)
T3 sequence (P41145 whole entry): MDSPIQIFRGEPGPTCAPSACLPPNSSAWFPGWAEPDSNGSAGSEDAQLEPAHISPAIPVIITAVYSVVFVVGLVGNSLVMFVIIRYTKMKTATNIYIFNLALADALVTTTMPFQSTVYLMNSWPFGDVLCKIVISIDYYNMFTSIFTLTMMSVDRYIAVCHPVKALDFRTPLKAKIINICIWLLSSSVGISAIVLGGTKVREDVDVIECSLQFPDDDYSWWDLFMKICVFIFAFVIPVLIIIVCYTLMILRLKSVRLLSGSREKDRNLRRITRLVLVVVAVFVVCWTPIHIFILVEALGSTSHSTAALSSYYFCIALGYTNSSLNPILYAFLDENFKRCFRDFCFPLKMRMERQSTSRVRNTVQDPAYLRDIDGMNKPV
As to the kind of experiment: Receptor binding, kappa opioid receptor (NIMH PDSP). Particulars: for kap/mu: ratio of KOR-to-MOR binding (Ki).
Source text: as §1

The test system of series [5] is delta opioid receptor (DOR). As to the kind of experiment: Receptor binding, delta opioid receptor (NIMH PDSP). Particulars: ratio of DOR-to-MOR binding (Ki).
Source text: as §1

Another series concerns male CD-1 mice. Briefly: Conditioned place preference (CPP).

Entries after “also recorded” stand apart in the source; their conditions may differ. Where a SMILES comes first, the peptide text is derived from it. Bridges are numbered along the chain shown (N, C = ends). [ ]: non-standard residue; d: D form. The star is where a group is joined. ξ: configuration not given here. X1 = OC[C@H]1O[C@@H](O[C@H]2[C@H](O)[C@@H](O)[C@H](*)O[C@@H]2CO)[C@H](O)[C@@H](O)[C@H]1O; βGlc = OC[C@H]1O[C@@H](*)[C@H](O)[C@@H](O)[C@@H]1O; d1Nal = N[C@H](Cc1cccc2ccccc12)C(=O)O; ξ1Nal = NC(Cc1cccc2ccccc12)C(=O)O

As usually defined, the Ki is a dissociation constant, usually derived from enzyme kinetics or from competition with a known ligand. A lower Ki goes with higher affinity.

T1 sequence (P35372 whole entry): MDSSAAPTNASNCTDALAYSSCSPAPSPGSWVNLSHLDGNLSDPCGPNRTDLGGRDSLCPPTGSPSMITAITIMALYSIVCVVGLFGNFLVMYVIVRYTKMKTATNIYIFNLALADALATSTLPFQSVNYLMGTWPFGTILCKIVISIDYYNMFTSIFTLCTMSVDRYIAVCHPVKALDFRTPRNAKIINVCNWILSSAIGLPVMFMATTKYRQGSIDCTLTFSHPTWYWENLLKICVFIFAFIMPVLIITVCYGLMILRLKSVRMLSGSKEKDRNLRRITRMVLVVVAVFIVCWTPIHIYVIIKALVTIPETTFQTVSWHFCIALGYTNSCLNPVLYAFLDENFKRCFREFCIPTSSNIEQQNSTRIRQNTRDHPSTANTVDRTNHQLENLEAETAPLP

Consider `NC(=O)CNC(=O)[C@@H]1CCC(=O)NCCCC[C@@H](NC(=O)[C@@H](N)Cc2ccc(O)cc2)C(=O)N[C@@H](Cc2c[nH]c3ccccc23)C(=O)N[C@@H](Cc2ccccc2)C(=O)N1` [ZH853, reference compound], for which, in series [1], the morphine equivalence entry is “about 1”. In addition, the “MOR affinity, in words” value on mu opioid receptor (MOR) is reported as “subnanomolar Ki, showed the highest MOR affinity”. Besides, in series [2], the “rank order of effectiveness, TF AUC” value was “A2>A7>A1>morphine>ZH853”; the “rank order of potency (ED50), TF” value was “A2>A7>A1>morphine >ZH853”; the “TF antinociception AUC” value worked out at 10000. Besides, the “time of peak response, TF” value in series [2] (s.c.) was in the range of 30 to 40 min. In addition, in the series on male and female DBA mice, the “rank order of potency (ED50), HP” value is listed as “A2>A7>A1>ZH853>morphine”. In series [3], affinity was put at a Ki of 271 nM.

Turning to `NC(=O)[C@H](CO[C@@H]1O[C@H](CO)[C@@H](O[C@@H]2O[C@H](CO)[C@H](O)[C@H](O)[C@H]2O)[C@H](O)[C@H]1O)NC(=O)[C@@H]1CCC(=O)NCCCC[C@@H](NC(=O)[C@@H](N)Cc2ccc(O)cc2)C(=O)N[C@@H](Cc2c[nH]c3ccccc23)C(=O)N[C@@H](Cc2ccccc2)C(=O)N1` [Analog A2, Tyr-c[D-Lys-Trp-Phe-Glu]-Ser(β-Lact)-NH2], on mu opioid receptor (MOR), the “reduction of MOR affinity by glycosylation” value (“reduction of MOR affinity” below) is on record as “approximately 5 fold”. In series [2] (1.8 mg/kg), the “TF antinociception (full)” value was determined as 100 % MPE. Further, in series [2] (1.8 mg/kg A2 matched to 10 mg/kg morphine), the “dose lower than morphine for equal total TF antinociception, mg/kg basis” value was 5.55 fold. Besides, in series [2], the “rank order of effectiveness, TF AUC” value was “A2>A7>A1>morphine>ZH853”; the “rank order of potency (ED50), TF” value is recorded as “A2>A7>A1>morphine >ZH853”; the “TF antinociception AUC” value is reported as above 25000. In series [2] (s.c., time course and AUC), the “TF antinociception, in words” value is listed as “remained high at the 5-hour limit of the test”. In addition, in the series with male and female DBA mice, the “rank order of potency (ED50), HP” value is given as “A2>A7>A1>ZH853>morphine” and the “HP antinociception, in words” value was “robust antinociception; also recorded: significantly greater AUC”.

Consider `NC(=O)[C@H](CO[C@@H]1O[C@H](CO)[C@@H](O[C@@H]2O[C@H](CO)[C@H](O)[C@H](O)[C@H]2O)[C@H](O)[C@H]1O)NC(=O)[C@@H]1CCC(=O)NCCCC[C@@H](NC(=O)[C@@H](N)Cc2ccc(O)cc2)C(=O)N[C@H](Cc2cccc3ccccc23)C(=O)N[C@@H](Cc2ccccc2)C(=O)N1` [Analog A5] (H-Y[dK][d1Nal]FES(X1)-NH2; lactam 2-5), for which, at mu opioid receptor (MOR), the Ki was 55.2 nM and the “additional reduction of MOR binding by D-Nal substitution of Trp at position 3” value is 11 fold. Besides, in series [4], the “KOR binding, in words” value was “eliminated delta and kappa binding”; the Ki was at least 10000 nM; the kap/mu is on record as 181. Moreover, in series [3], the “DOR binding, in words” value is “eliminated delta and kappa binding”; the Ki is at least 10000 nM. In addition, in series [5], the del/mu was found to be 181.

Turning to `CN1CC[C@]23c4c5ccc(O)c4O[C@H]2[C@@H](O)C=C[C@H]3[C@H]1C5` [morphine, reference compound], the “TF antinociception (full)” value in series [2] (10 mg/kg, n=6) came to 100 % MPE. In addition, the “rank order of potency (ED50), TF” value in series [2] was “A2>A7>A1>morphine >ZH853”. In addition, the “time of peak response, TF” value in series [2] (s.c.) lay in the range of 20 to 30 min. Moreover, the “rank order of potency (ED50), HP” value in the series with male and female DBA mice was “A2>A7>A1>ZH853>morphine”. In addition, the CPP versus vehicle entry in the series on male CD-1 mice (3.2 mg/kg, one-way analysis, p<0.01) is given as “greater than vehicle”. Besides, the “conditioned place preference (CPP)” value in the series with male CD-1 mice (3 equiantinociceptive doses, s.c., n=12) is given as “produced CPP”.

In the case of `NC(=O)[C@H](CO[C@@H]1O[C@H](CO)[C@@H](O)[C@H](O)[C@H]1O)NC(=O)CNC(=O)[C@@H]1CCC(=O)NCCCC[C@@H](NC(=O)[C@@H](N)Cc2ccc(O)cc2)C(=O)N[C@@H](Cc2c[nH]c3ccccc23)C(=O)N[C@@H](Cc2ccccc2)C(=O)N1` [Analog A3], the “MOR affinity, in words” value on mu opioid receptor (MOR) is on record as “lowest MOR affinity”. Moreover, in series [4], the “KOR binding, in words” value is given as “increased KOR affinity”. The Ki in series [3] is at least 10000 nM.

With `NC(=O)[C@H](CO[C@@H]1O[C@H](CO)[C@@H](O)[C@H](O)[C@H]1O)NC(=O)[C@@H]1CCC(=O)NCCCC[C@@H](NC(=O)[C@@H](N)Cc2ccc(O)cc2)C(=O)N[C@H](Cc2cccc3ccccc23)C(=O)N[C@@H](Cc2ccccc2)C(=O)N1` [Analog A4] (H-Y[dK][d1Nal]FES(βGlc)-NH2; lactam 2-5), on mu opioid receptor (MOR), the Ki amounted to 63.5 nM and the “additional reduction of MOR binding by D-Nal substitution of Trp at position 3” value was determined as 11 fold. Besides, in series [4], the “KOR binding, in words” value was “eliminated delta and kappa binding”; the Ki was at least 10000 nM; the kap/mu is 157. Moreover, in series [3], the “DOR binding, in words” value was “eliminated delta and kappa binding”; the Ki was at least 10000 nM. Also, the del/mu in series [5] was found to be 157.

With `NC(=O)[C@H](CO[C@@H]1O[C@H](CO)[C@@H](O)[C@H](O)[C@H]1O)NC(=O)[C@@H]1CCC(=O)NCCCC[C@@H](NC(=O)[C@@H](N)Cc2ccc(O)cc2)C(=O)NC(Cc2cccc3ccccc23)C(=O)N[C@@H](Cc2ccccc2)C(=O)N1` (some centres unmarked) [Analog A6] (H-Y[dK][ξ1Nal]FES(βGlc)-NH2; lactam 2-5), on mu opioid receptor (MOR), the “MOR affinity, in words” value is on record as “did not reduce MOR affinity” and the “reduction of MOR affinity” value is on record as “approximately 5 fold”. On mu opioid receptor (MOR) (versus DOR and KOR), the “MOR selectivity, in words” value is listed as “least selective compound”. Also, in series [4], the “KOR binding, in words” value is on record as “increased KOR affinity” and the kap/mu is on record as 48. Further, the del/mu in series [5] came out at 57.

Take `NC(=O)[C@H](CO[C@@H]1O[C@H](CO)[C@@H](O)[C@H](O)[C@H]1O)NC(=O)[C@@H]1CCC(=O)NCCCC[C@@H](NC(=O)[C@@H](N)Cc2ccc(O)cc2)C(=O)N[C@@H](Cc2c[nH]c3ccccc23)C(=O)N[C@@H](Cc2ccccc2)C(=O)N1` [Analog A1, Tyr-c[D-Lys-Trp-Phe-Glu]-Ser(β-Glc)-NH2]: the “reduction of MOR affinity” value on mu opioid receptor (MOR) is reported as “approximately 5 fold”. In addition, in series [2], the “rank order of effectiveness, TF AUC” value is recorded as “A2>A7>A1>morphine>ZH853” and the “rank order of potency (ED50), TF” value was “A2>A7>A1>morphine >ZH853”. Moreover, in the series with male and female DBA mice, the “rank order of potency (ED50), HP” value is “A2>A7>A1>ZH853>morphine” and the “HP antinociception, in words” value is on record as “not significantly greater than those of reference compounds”.

Turning to `NC(=O)[C@H](CO[C@@H]1O[C@H](CO)[C@@H](O)[C@H](O)[C@H]1O)NC(=O)[C@H](CO[C@@H]1O[C@H](CO)[C@@H](O)[C@H](O)[C@H]1O)NC(=O)[C@@H]1CCC(=O)NCCCC[C@@H](NC(=O)[C@@H](N)Cc2ccc(O)cc2)C(=O)N[C@@H](Cc2c[nH]c3ccccc23)C(=O)N[C@@H](Cc2ccccc2)C(=O)N1` [Analog A7, Tyr-c[D-Lys-Trp-Phe-Glu]-Ser(β-Glc)-Ser(β-Glc)-NH2], at mu opioid receptor (MOR), the “MOR affinity, in words” value is reported as “did not change MOR affinity” and the “reduction of MOR affinity” value is on record as “approximately 5 fold”. Besides, in series [2], the “rank order of effectiveness, TF AUC” value is given as “A2>A7>A1>morphine>ZH853” and the “rank order of potency (ED50), TF” value was “A2>A7>A1>morphine >ZH853”. For the same compound, in series [4], the “KOR binding, in words” value was “below detectable levels”. Also, the “greater HP effectiveness versus control compounds (AUC)” value in the series with male and female DBA mice (1.8 mg/kg vs 5.6 mg/kg for controls) was “approximately 3 fold”. In addition, in the series with male and female DBA mice, the “rank order of potency (ED50), HP” value is reported as “A2>A7>A1>ZH853>morphine” and the “HP antinociception, in words” value was “robust antinociception; also recorded: significantly greater AUC”. In series [3], the “DOR binding, in words” value is given as “below detectable levels”.

The record behind these values is patent US20250296958A1, “GL[…] E[…]” (THE ADMINISTRATORS OF THE TULANE EDUCATIONAL FUND, priority 2022, published 2025).
